# Publication PMC6946680, “Modulation of brain cation-Cl^− cotransport via the SPAK kinase inhibitor ZT-1a” (Nature Communications, 2020)
# “And” between values parts separate entries of the source, which are not always exact repeats. Identical values can stand only once. “Also recorded” adds a separate entry of the source.
# What was measured:
# [1] = test system: KCC3 Thr991Ala/Thr1048Ala; assay: 86Rb+ uptake assay for KCC3 double mutant in HEK-293 cells; type: cell-based, human; settings: for 86Rb+ uptake: Fig 3a, T991A/T1048A + 1a (10 µM), replicates
# Method: ^86Rb^+ flux assays have been utilized extensively as a reliable measurement of cation chloride cotransporter activity[51]–[54].
# Thirty-six hours post transfection, cells were exposed for 30 min to either control isotonic conditions or hypotonic low [Cl^−] conditions (to activate the SPAK/OSR1 pathway), and then treated for an additional 30 min in the same conditions with the indicated ZT-1a concentrations in the presence of 1 mM ouabain and 0.1 mM bumetanide. Ten-minute ^86Rb^+ uptake values were quantified by scintillation counting, normalized per mg protein for each condition, and plotted for both isotonic and hypotonic conditions. ***p < 0.001; **p < 0.01; *p < 0.05; ns—nonsignificant [by one-way ANOVA with post hoc testing (n = 6, error bars represent the mean ± SEM)]. b ^86Rb^+ uptake assays in the presence of ZT-1a measure transport activity of NKCC1. […] Thirty-six hours post transfection, cells were exposed for 30 min to either control isotonic conditions or hypotonic low [Cl^−] conditions (to activate the SPAK/OSR1 pathway), and then treated in the same conditions for an additional 30 min with 10 µM ZT-1a or 0.1 mM bumetanide (Bum) in the presence of 1 mM ouabain (Na^+/K^+-ATPase inhibitor). ^86Rb^+ uptake was allowed to proceed for 10 min and was then quantified by scintillation counting. ^86Rb^+ uptake CPMs were normalized per mg protein and plotted for both isotonic and hypotonic conditions. […] Ten-minute ^86Rb^+ uptake values were quantified by scintillation counting, normalized per mg protein for each condition, and plotted for both isotonic and hypotonic conditions. ***p < 0.001; **p < 0.01; *p < 0.05; ns—nonsignificant [by one-way ANOVA with post hoc testing (n = 6, error bars represent the mean ± SEM)].
# This stimulating medium was then removed and replaced with isotonic medium containing inhibitors plus 2 µCi/ml ^86Rb^+. […] Washed cells were lysed in 300 µl of ice-cold lysis buffer and ^86Rb^+ uptake was quantitated by liquid scintillation counting (PerkinElmer).
# NKCC1 pThr203/207/212 = assay: Choroid plexus NKCC1 immunoblot in rat IVH model; type: in vivo
# KCC3 pThr991/pThr1048 = assay: Choroid plexus KCC3 phospho-IP/immunoblot in rat IVH model; type: in vivo
# [2] = test system: mouse model of ischemic stroke (tMCAO); assay: Ex vivo T2-weighted MRI and DTI of brains 7 days post tMCAO; type: in vivo
# pGSK-3α/β = assay: Immunoblot of phospho-GSK-3α/β in ischemic mouse brain; type: in vivo; settings: for pGSK-3αβ/GAPDH (fold veh-CL): Cytosol; for pGSK-3αβ/GAPDH (fold veh-CL) / pGSK-3αβ/Na K pump (fold veh-CL): Fig S4d; for pGSK-3αβ/Na K pump (fold veh-CL): Membrane
# Source text: (§1) Cytosol and crude membrane protein
# (§2) Expressions of Na+-K+ ATPase
# (§3) respectively. d Densitometric analyses of immunoblots.
# pJNK = assay: Immunoblot of phospho-JNK in ischemic mouse brain; type: in vivo
# Source text: as §1, §2, §3
# pERK1/2 = assay: Immunoblot of phospho-ERK1/2 in ischemic mouse brain; type: in vivo; settings: for pERK/Na K pump (fold veh-CL): Membrane
# Source text: as §1, §2, §3
# KCC3 = assay: Immunoblot of total KCC3 / Actin in HEK-293 cells transfected with FLAG-KCC3; type: cell-based, human; settings: Fig S4b
# [3] = design: method as in Reviewer #3; settings: as stated by Reviewer #3 in the peer-review file; ref Reviewer #3; cited from earlier work
# pKCC3 pThr991/pThr1048 = assay: Immunoblot of pKCC3 in ischemic mouse brain membrane fractions; settings: for KCC3 / Na-K pumb / pThr991 / KCC3 / pThr991 / Na-K pumb / pThr1048 / KCC3 / pThr1048 / Na-K pumb: Fig 8, individual samples
# pNKCC1 (pThr203/207/212) = assay: Immunoblot of pNKCC1 in ischemic mouse brain membrane fractions; settings: for NKCC1 / Na-K pumb / pThr203/207/212 / NKCC1: Fig 8, individual samples
# [4] = test system: pSPAK (pSer373)/pOSR1 (pSer325); assay: Immunoblot of pSPAK/pOSR1 in ischemic mouse brain membrane fractions; settings: for SPAK / Na-K pumb / pSer373 / SPAK: Fig 8, individual samples; for pSPAK pOSR1/Na K pump (fold veh-CL): Membrane, single samples
# human fibroblast cells = assay: Cell volume measurement (calcein-AM) under hyperosmotic stress, human fibroblasts; settings: hypertonic 515 mOsm; BMT or ZT-1a
# [5] = rat CPe 48 h post IVH + 1a, replicates
# [6] = 7 days post stroke, ZT-1a 5.0 mg/kg
# [7] = compared with vehicle-control mice
# [8] = post-stroke ZT-1a 5 mg/kg, 24 h reperfusion
structure (smiles),measurement,setting,value
"Cc1cc(C(C#N)c2ccc(Cl)cc2)c(Cl)cc1NC(=O)c1cc(Cl)ccc1O (centres unmarked) [ZT-1a, 5-chloro-N-(5-chloro-4-((4-chlorophenyl)(cyano)methyl)-2-methylphenyl)-2-hydroxybenzamide]",activity of KCC3 double mutant Thr991Ala/Thr1048Ala,"[1]; 86Rb+ flux, 10 µM ZT-1a",failed to increase activity
same,86Rb+ uptake,[1]; Hypotonic low Cl-,20886.3 and 22005.7 and 21031.7 and 19121.7 and 18316.2 and 19001.7
same,86Rb+ uptake,[1]; Isotonic control,27112.3 and 26091.1 and 31837.7 and 30881.4 and 28673.6 and 29768.2
same,NKCC1 pThr203/207/212 / Actin,NKCC1 pThr203/207/212; [5],1.03 and 0.7 and 0.5 and 0.9 and 0.81 and 0.55
same,reduction of IVH-induced expression of pNKCC1 in CPe,"NKCC1 pThr203/207/212; rat, ICV ZT-1a, 48 h post IVH, n = 3",69 ± 4.3%
same,KCC3 pThr991 / Actin,KCC3 pThr991/pThr1048; [5],0.089 and 0.127 and 0.217 and 0.096 and 0.114 and 0.223
same,KCC3 pThr1048 / Actin,KCC3 pThr991/pThr1048; [5],0.504 and 0.573 and 0.821 and 0.586 and 0.633 and 0.872
same,reduction of post-IVH KCC3 phosphorylation at Thr991,"KCC3 pThr991/pThr1048; rat CPe, ICV ZT-1a",6 fold
same,reduction of post-IVH KCC3 phosphorylation at Thr1048,"KCC3 pThr991/pThr1048; rat CPe, ICV ZT-1a",2.1 fold
same,EC tract FA values in the IL hemisphere,[2]; [6],undiminished
same,reduction of brain atrophy (% hemisphere shrinkage),[2]; [6],~ 41%
same,reduction of stroke-induced lesion volume (T2-weighted MRI),[2]; [6],~ 40%
same,EC FA value,"[2]; Fig 7d, CL hemisphere, individual brains",0.3452 and 0.2737 and 0.3976 and 0.3529 and 0.3132 and 0.3022 and 0.3144
same,EC FA value,"[2]; Fig 7d, IL hemisphere, individual brains",0.3284 and 0.2019 and 0.3515 and 0.3727 and 0.2854 and 0.2283 and 0.2974
same,% Shrinkage,"[2]; Fig 7d, individual brains",4.31% and 1.96% and 1.98% and 5.61% and 5.20% and 3.63% and 2.52%
same,Lesion volume (mm3),"[2]; Fig 7d, individual brains",33.98 mm3 and 34.15 mm3 and 17.99 mm3 and 33.62 mm3 and 29.17 mm3 and 52.2 mm3 and 18.61 mm3
same,pGSK-3αβ/GAPDH (fold veh-CL),pGSK-3α/β; CL,1.03 fold veh-CL and 0.85 fold veh-CL and 1.10 fold veh-CL
same,pGSK-3αβ/GAPDH (fold veh-CL),pGSK-3α/β; IL,1.40 fold veh-CL and 1.29 fold veh-CL and 1.07 fold veh-CL
same,pGSK-3αβ/Na K pump (fold veh-CL),pGSK-3α/β; CL,1.04 fold veh-CL and 0.96 fold veh-CL and 1.12 fold veh-CL
same,pGSK-3αβ/Na K pump (fold veh-CL),pGSK-3α/β; IL,0.94 fold veh-CL and 0.88 fold veh-CL and 0.90 fold veh-CL
same,GSK-3β (p-GSK-3alpha/beta) phosphorylation in ischemic brain,"pGSK-3α/β; ZT-1a-treated ischemic mouse brain, 5.0 mg/kg i.p., 24 h post reperfusion, 5 mg/kg",not inhibited; also recorded: no marked inhibition
same,pJNK/GAPDH (fold veh-CL),"pJNK; Cytosol, CL, Fig S4d",1.00 fold veh-CL and 1.48 fold veh-CL and 0.87 fold veh-CL and 0.76 fold veh-CL
same,pJNK/Na K pump (fold veh-CL),"pJNK; Membrane, IL, Fig S4d",2.05 fold veh-CL and 1.64 fold veh-CL and 1.81 fold veh-CL and 1.40 fold veh-CL
same,p-JNK in ischemic brains,pJNK; ZT-1a 5.0 mg/kg,no marked inhibition
same,pERK/GAPDH (fold veh-CL),"pERK1/2; Cytosol, CL, Fig S4d",1.33 fold veh-CL and 1.29 fold veh-CL and 0.75 fold veh-CL
same,pERK/Na K pump (fold veh-CL),"pERK1/2; CL, Fig S4d",1.45 fold veh-CL and 1.52 fold veh-CL and 1.76 fold veh-CL
same,pERK/Na K pump (fold veh-CL),"pERK1/2; IL, Fig S4d",1.27 fold veh-CL and 2.10 fold veh-CL and 1.54 fold veh-CL
same,p-ERK in ischemic brains,pERK1/2; ZT-1a 5.0 mg/kg,no marked inhibition
same,KCC3 / Actin,KCC3; ZT-1a 0.3 uM,2.04 and 1.923 and 2.091 and 1.84
same,KCC3 / Actin,KCC3; ZT-1a 1 uM,1.85 and 1.949 and 1.921 and 1.782
same,KCC3 / Actin,KCC3; ZT-1a 3 uM,1.87 and 1.905 and 1.972 and 1.73
same,logP,[3],> 6
same,KCC3 / Na-K pumb,pKCC3 pThr991/pThr1048; CL hemisphere,1.336 and 1.197 and 1.267 and 1.158 and 1.265 and 1.361
same,pThr991 / KCC3,pKCC3 pThr991/pThr1048; CL hemisphere,1.218 and 1.115 and 1.236 and 1.366 and 1.064 and 1.128
same,pThr991 / Na-K pumb,pKCC3 pThr991/pThr1048; CL hemisphere,1.627 and 1.334 and 1.565 and 1.429 and 1.509 and 1.618
same,pThr1048 / KCC3,pKCC3 pThr991/pThr1048; CL hemisphere,1.138 and 0.971 and 0.993 and 1.217 and 1.116 and 0.937
same,pThr1048 / Na-K pumb,pKCC3 pThr991/pThr1048; CL hemisphere,1.52 and 1.162 and 1.258 and 1.37 and 1.22 and 1.531
same,KCC3 / Na-K pumb,pKCC3 pThr991/pThr1048; IL hemisphere,1.177 and 1.337 and 1.176 and 1.207 and 1.288 and 1.143
same,pThr991 / KCC3,pKCC3 pThr991/pThr1048; IL hemisphere,0.804 and 0.867 and 0.759 and 0.638 and 0.69 and 0.743
same,pThr991 / Na-K pumb,pKCC3 pThr991/pThr1048; IL hemisphere,0.946 and 0.897 and 1.023 and 0.942 and 0.889 and 0.849
same,pThr1048 / KCC3,pKCC3 pThr991/pThr1048; IL hemisphere,0.646 and 0.719 and 0.618 and 0.673 and 0.737 and 0.686
same,pThr1048 / Na-K pumb,pKCC3 pThr991/pThr1048; IL hemisphere,0.76 and 0.987 and 0.854 and 0.792 and 0.949 and 0.785
same,reduction of ischemia-induced elevation of pKCC3,pKCC3 pThr991/pThr1048; [7],30%
same,ischemia-induced increase of pKCC3,pKCC3 pThr991/pThr1048; [8],prevented
same,NKCC1 / Na-K pumb,pNKCC1 (pThr203/207/212); CL hemisphere,1.613 and 1.481 and 1.6 and 1.576 and 1.424 and 1.642
same,pThr203/207/212 / NKCC1,pNKCC1 (pThr203/207/212); CL hemisphere,0.451 and 0.437 and 0.265 and 0.378 and 0.429 and 0.303
same,NKCC1 / Na-K pumb,pNKCC1 (pThr203/207/212); IL hemisphere,1.43 and 1.528 and 1.481 and 1.417 and 1.587 and 1.394
same,pThr203/207/212 / NKCC1,pNKCC1 (pThr203/207/212); IL hemisphere,0.461 and 0.418 and 0.385 and 0.452 and 0.396 and 0.372
same,reduction of ischemia-induced elevation of pNKCC1,pNKCC1 (pThr203/207/212); [7],55–65%
same,ischemia-induced increase of pNKCC1,pNKCC1 (pThr203/207/212); [8],prevented
same,SPAK / Na-K pumb,[4]; CL hemisphere,0.981 and 0.854 and 0.987 and 1.037 and 0.972 and 0.893
same,pSer373 / SPAK,[4]; CL hemisphere,1.177 and 1.25 and 1.197 and 1.217 and 1.153 and 1.09
same,SPAK / Na-K pumb,[4]; IL hemisphere,0.919 and 0.978 and 0.855 and 0.931 and 0.95 and 0.819
same,pSer373 / SPAK,[4]; IL hemisphere,0.773 and 0.739 and 0.598 and 0.674 and 0.62 and 0.668
same,pSPAK pOSR1/Na K pump (fold veh-CL),[4]; CL,1.23 fold veh-CL and 0.84 fold veh-CL and 1.17 fold veh-CL and 1.58 fold veh-CL and 1.64 fold veh-CL
same,pSPAK pOSR1/Na K pump (fold veh-CL),[4]; IL,1.24 fold veh-CL and 0.94 fold veh-CL and 0.88 fold veh-CL and 1.08 fold veh-CL and 0.87 fold veh-CL
same,reduction of ischemia-induced elevation of pSPAK,[4]; [7],55–65%
same,ischemia-induced increase of pSPAK/pOSR1,[4]; [8],prevented
same,regulatory volume increase (RVI) in human fibroblast cells,human fibroblast cells,absence of RVI
